In test [1] the target is T1, MGIC (Myoinhibitory peptide-Gated Ion Channel; ENaC5) (Platynereis dumerilii, UniProt A0A2S1B6I3).
T1 sequence (A0A2S1B6I3 1-589): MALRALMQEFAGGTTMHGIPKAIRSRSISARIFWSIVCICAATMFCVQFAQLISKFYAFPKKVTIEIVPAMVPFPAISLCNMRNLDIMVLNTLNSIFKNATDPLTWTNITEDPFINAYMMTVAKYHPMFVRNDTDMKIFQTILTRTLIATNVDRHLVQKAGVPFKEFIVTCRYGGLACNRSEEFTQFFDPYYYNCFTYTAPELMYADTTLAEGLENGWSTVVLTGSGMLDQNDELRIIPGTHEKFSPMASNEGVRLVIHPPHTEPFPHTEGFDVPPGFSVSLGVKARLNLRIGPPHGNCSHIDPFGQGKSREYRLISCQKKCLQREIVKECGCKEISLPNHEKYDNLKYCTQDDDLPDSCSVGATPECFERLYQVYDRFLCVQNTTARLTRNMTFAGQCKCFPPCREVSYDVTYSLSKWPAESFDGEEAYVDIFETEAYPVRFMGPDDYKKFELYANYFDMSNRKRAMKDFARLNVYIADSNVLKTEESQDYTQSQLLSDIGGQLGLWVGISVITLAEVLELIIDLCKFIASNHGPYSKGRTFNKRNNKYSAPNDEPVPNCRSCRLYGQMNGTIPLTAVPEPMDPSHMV
Description: two-electrode voltage clamp, Xenopus oocytes. It counts as cell-based. To be noted: read-out: % of control current at 50 μM. In general terms: In two-electrode clamp one electrode senses voltage and the other passes current.

For test [2], the target named is T1, MGIC (Myoinhibitory peptide-Gated Ion Channel; ENaC5). Description: two-electrode voltage clamp, Xenopus oocytes. Type of test: cell-based.

Broadly, the IC50 is the point on the concentration scale where inhibition reaches its midpoint. Higher therefore signals weaker potency in that assay.

In the case of `NC(=NC(=O)c1nc(Cl)c(N)nc1N)Nc1ccccc1` [phenamil], the remaining activity at 50 µM in test [1] was found to be 45 ± 4%.
On to `N=C(N)NC(=O)c1nc(Cl)c(N)nc1N` [amiloride], for which 13 ± 2 µM corresponded to half-maximal inhibition in test [2] (IC50).
In turn, `N=C(N)c1ccc(/N=N/Nc2ccc(C(=N)N)cc2)cc1` [diminazene] had an IC50 in test [2] of 0.73 ± 0.16 µM.
`NC(=NC(=O)c1nc(Cl)c(N)nc1N)NCc1ccccc1` [benzamil]: in test [1], the remaining activity at 50 µM is 74 ± 3%.

The values above are taken from doi:10.1101/261990v1 (biorxiv, 2018).
